The target of experiment [1] is T1, His tagged PTPN2 (TC45) protein (Homo sapiens, UniProt P17706).
T1 construct: made in house
T1 sequence (P17706 with tags, fused parts or gaps isoform P17706-2): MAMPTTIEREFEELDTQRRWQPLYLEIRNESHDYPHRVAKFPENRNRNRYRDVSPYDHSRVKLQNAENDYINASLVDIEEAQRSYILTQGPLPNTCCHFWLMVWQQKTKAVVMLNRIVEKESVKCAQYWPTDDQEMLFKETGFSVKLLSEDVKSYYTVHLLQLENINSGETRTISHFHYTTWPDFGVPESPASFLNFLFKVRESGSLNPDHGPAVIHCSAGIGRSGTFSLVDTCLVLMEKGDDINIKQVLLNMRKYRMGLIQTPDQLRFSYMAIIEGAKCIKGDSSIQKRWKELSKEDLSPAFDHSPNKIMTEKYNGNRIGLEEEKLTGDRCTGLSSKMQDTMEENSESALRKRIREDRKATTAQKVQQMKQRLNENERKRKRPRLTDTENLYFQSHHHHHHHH
In words: Mobility shift assay (MSA) for potency of PTPN2 inhibitors. Type of experiment: biochemical. Put shortly:
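His-tagged PTPN2 TC45 (0.5 nM) was preincubated with compound (12-point, 1:3) for 10 min at room temperature in 50 mM HEPES pH 7.5, 1 mM EGTA, 10 mM EDTA, 0.01% Tween 20, 2 mM DTT. OG488-labelled phospho-insulin-receptor peptide ([…]) was then added for 10 min. After quenching, dephosphorylation was measured by microfluidic mobility shift and IC50 derived from % inhibition.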

Experiment [2] deals with T2, His tagged full-length PTP1B protein (Homo sapiens, UniProt P18031).
T2 construct: made in house
T2 sequence (P18031 with tags, fused parts or gaps): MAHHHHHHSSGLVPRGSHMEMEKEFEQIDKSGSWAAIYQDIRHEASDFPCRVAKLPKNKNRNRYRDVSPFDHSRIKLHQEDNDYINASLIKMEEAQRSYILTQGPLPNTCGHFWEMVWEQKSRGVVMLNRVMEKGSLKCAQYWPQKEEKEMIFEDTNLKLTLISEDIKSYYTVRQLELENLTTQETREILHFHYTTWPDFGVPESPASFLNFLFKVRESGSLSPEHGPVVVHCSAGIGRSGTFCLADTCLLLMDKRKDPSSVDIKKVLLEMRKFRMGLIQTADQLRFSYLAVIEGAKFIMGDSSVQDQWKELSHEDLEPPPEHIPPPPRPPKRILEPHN
The experiment can be described thus: Mobility shift assay (MSA) for potency of PTP1B inhibitors. It counts as biochemical. As to the method:
The enzymatic assay used to determine activity is a mobility shift assay using a LabChip EZ Reader by Caliper Life Sciences. The enzymatic reaction was carried out in assay buffer (50 mM HEPES pH 7.5, 1 mM EGTA, 10 mM EDTA, 0.01% Tween® 20, and 2 mM DTT). […] The enzyme (at 0.5 nM) was incubated with compound for 10 minutes at room temperature. […] The % inhibition was then used to calculate the IC50 values.

The test system of experiment [3] is B16F10 mouse melanoma cells. The experiment can be described thus: B16F10 IFNγ-induced cellular growth inhibition assay. Type of experiment: cell-based. The settings on record: Mus musculus, B16-F10. The method, boiled down:
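B16F10 cells (500/well, DMEM + 10% FBS) dosed in triplicate at 100 μM to 0.001 μM (0.1% DMSO) with or without 0.5 ng/mL final mouse IFNγ. Confluence imaged every 6 h for 5 days; % growth inhibition calculated versus DMSO/with-IFNγ control once DMSO/no-IFNγ wells exceeded 95% confluence.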

[4] abbreviates: +0.5 ng/mL IFNγ, 33 μM compound, relative to DMSO control, read-out: % B16F10 growth inhibition (+0.5 ng/mL IFNγ) @ 33 μM.
Setting [5] is: no IFNγ, 33 μM compound, read-out: % B16F10 growth inhibition (no IFNγ) @ 33 μM.

SMILES strings stand for the structures. Like-named read-outs stand apart in the source and are kept apart here.

By IC50 is commonly meant the concentration at which inhibition is half-maximal.

For the compound `O=C1CN(c2c(O)cc3ccc([C@@H]4CCNC4)cc3c2F)S(=O)(=O)N1` (single isomer, unassigned) [Compound 232], the IC50 in experiment [1] (read-out: PTPN2 MSA IC50) is 1 to 10 nM; in experiment [2] it was 10 to 100 nM.
Turning to `O=C1CN(c2c(O)cc3ccc([C@H]4CCNC4)cc3c2F)S(=O)(=O)N1` (single isomer, unassigned) [Compound 233], the half-maximal inhibitory concentration (IC50) was in the range of 1 to 10 nM in experiment [1] (read-out: PTPN2 MSA IC50) and 10 to 100 nM in experiment [2].
Consider `CC(O)COc1ccc2cc(O)c(N3CC(=O)NS3(=O)=O)c(F)c2c1` (stereo not drawn) [Compound 135, 5-[1-fluoro-3-hydroxy-7-(2-hydroxypropoxy)naphthalen-2-yl]-1λ^6,2,5-thiadiazolidine-1,1,3-trione], for which the concentration for half-maximal inhibition (IC50) in experiment [1] (read-out: PTPN2 MSA IC50) is 1 to 10 nM; in experiment [2], 10 to 100 nM.
The corresponding values for `CC(COc1ccc2cc(O)c(N3CC(=O)NS3(=O)=O)c(F)c2c1)C1CC1` (stereo not drawn) [Compound 171, 5-[7-(2-cyclopropylpropoxy)-1-fluoro-3-hydroxynaphthalen-2-yl]-1λ^6,2,5-thiadiazolidine-1,1,3-trione] are less than 1 nM and 10 to 100 nM.
For `CS(=O)(=O)N1CCC(COc2ccc3cc(O)c(N4CC(=O)NS4(=O)=O)c(F)c3c2)C1` (stereo not drawn) [Compound 173, 5-(1-fluoro-3-hydroxy-7-{[1-(methanesulfonyl)pyrrolidin-3-yl]methoxy}naphthalen-2-yl)-1,2,5-thiadiazolidine-1,1,3-trione], the IC50 in experiment [1] (read-out: PTPN2 MSA IC50) was less than 1 nM; in experiment [2], 10 to 100 nM.
As to `CC(C)S(=O)(=O)N1CC=C(c2ccc3cc(O)c(N4CC(=O)NS4(=O)=O)c(F)c3c2)C1` [Compound 296, 5-{1-fluoro-3-hydroxy-7-[1-(propane-2-sulfonyl)-2,5-dihydro-1H-pyrrol-3-yl]naphthalen-2-yl}-1λ^6,2,5-thiadiazolidine-1,1,3-trione], the half-inhibitory concentration (IC50) in experiment [1] (read-out: PTPN2 MSA IC50) is less than 1 nM. The inhibition at 33 µM in experiment [3] (setting [4]) is greater than 90%; in experiment [3] (setting [5]), less than 25%.
For the compound `O=C1CN(c2c(O)cc3ccc(C4=CCN(S(=O)(=O)C5CC5)CC4)cc3c2F)S(=O)(=O)N1` [Compound 297, 5-{7-[1-(cyclopropanesulfonyl)-1,2,3,6-tetrahydropyridin-4-yl]-1-fluoro-3-hydroxynaphthalen-2-yl}-1λ^6,2,5-thiadiazolidine-1,1,3-trione], in experiment [1] (read-out: PTPN2 MSA IC50), the IC50 lay within 1 to 10 nM. Also, the inhibition at 33 µM in experiment [3] (setting [4]) is 25 to 59%; in experiment [3] (setting [5]), less than 25%.
The corresponding values for `O=C1CN(c2c(O)cc3ccc(C4CCNCC4)cc3c2F)S(=O)(=O)N1` [Compound 299, 5-[1-fluoro-3-hydroxy-7-(piperidin-4-yl)naphthalen-2-yl]-1λ^6,2,5-thiadiazolidine-1,1,3-trione] are 1 to 10 nM, greater than 90% and less than 25%.
With `CC(C)CS(=O)(=O)N1CC=C(c2ccc3cc(O)c(N4CC(=O)NS4(=O)=O)c(F)c3c2)C1` [Compound 300, 5-{1-fluoro-3-hydroxy-7-[1-(2-methylpropane-1-sulfonyl)-2,5-dihydro-1H-pyrrol-3-yl]naphthalen-2-yl}-1λ^6,2,5-thiadiazolidine-1,1,3-trione], the IC50 in experiment [1] (read-out: PTPN2 MSA IC50) was less than 1 nM. For the same compound, the inhibition at 33 µM in experiment [3] (setting [4]) was 60 to 90%; in experiment [3] (setting [5]), less than 25%.
As for `CCOc1ccc2cc(O)c(N3CC(=O)NS3(=O)=O)c(F)c2c1` [Compound 301, 5-(7-ethoxy-1-fluoro-3-hydroxynaphthalen-2-yl)-1λ^6,2,5-thiadiazolidine-1,1,3-trione], in experiment [1] (read-out: PTPN2 MSA IC50), the IC50 was 1 to 10 nM. Moreover, the inhibition at 33 µM in experiment [3] (setting [4]) is 60 to 90%; in experiment [3] (setting [5]), less than 25%.
The corresponding values for `O=C1CN(c2c(O)cc3ccc(OCC(F)F)cc3c2F)S(=O)(=O)N1` [Compound 302, 5-[7-(2,2-difluoroethoxy)-1-fluoro-3-hydroxynaphthalen-2-yl]-1λ^6,2,5-thiadiazolidine-1,1,3-trione] are 1 to 10 nM, 60 to 90% and less than 25%.
The like results for `O=C1CN(c2c(O)cc3ccc(-c4cnn(S(=O)(=O)C5CC5)c4)cc3c2F)S(=O)(=O)N1` [Compound 303, 5-{7-[1-(cyclopropanesulfonyl)-1H-pyrazol-4-yl]-1-fluoro-3-hydroxynaphthalen-2-yl}-1λ^6,2,5-thiadiazolidine-1,1,3-trione] were, in that order, less than 1 nM, 60 to 90% and less than 25%.
`CS(=O)(=O)N1CC[C@@H](Nc2ccc3cc(O)c(N4CC(=O)NS4(=O)=O)c(F)c3c2)C1` [Compound 304, 5-(1-fluoro-3-hydroxy-7-{[(3R)-1-(methanesulfonyl)pyrrolidin-3-yl]amino}naphthalen-2-yl)-1λ^6,2,5-thiadiazolidine-1,1,3-trione]: the IC50 in experiment [1] (read-out: PTPN2 MSA IC50) was in the range of 1 to 10 nM. Further, the results for the inhibition at 33 µM in experiment [3] (setting [4]) and in experiment [3] (setting [5]) were greater than 90% and less than 25%, respectively.
With `CS(=O)(=O)N1CCC(Nc2ccc3cc(O)c(N4CC(=O)NS4(=O)=O)c(F)c3c2)CC1` [Compound 305, 5-(1-fluoro-3-hydroxy-7-{[1-(methanesulfonyl)piperidin-4-yl]amino}naphthalen-2-yl)-1λ^6,2,5-thiadiazolidine-1,1,3-trione], the half-inhibitory concentration (IC50) in experiment [1] (read-out: PTPN2 MSA IC50) is 10 to 100 nM. Further, the inhibition at 33 µM in experiment [3] (setting [4]) is 60 to 90%; in experiment [3] (setting [5]), less than 25%.
The corresponding values for `NCCOc1ccc2cc(O)c(N3CC(=O)NS3(=O)=O)c(F)c2c1` [Compound 309, 5-[7-(2-aminoethoxy)-1-fluoro-3-hydroxynaphthalen-2-yl]-1λ^6,2,5-thiadiazolidine-1,1,3-trione] are 1 to 10 nM, 60 to 90% and less than 25%.
Regarding `Cc1nn(C)cc1S(=O)(=O)N1CC=C(c2ccc3cc(O)c(N4CC(=O)NS4(=O)=O)c(F)c3c2)C1` [Compound 310, 5-{7-[1-(1,3-dimethyl-1H-pyrazole-4-sulfonyl)-2,5-dihydro-1H-pyrrol-3-yl]-1-fluoro-3-hydroxynaphthalen-2-yl}-1λ^6,2,5-thiadiazolidine-1,1,3-trione], in experiment [1] (read-out: PTPN2 MSA IC50), the IC50 was less than 1 nM. Moreover, the inhibition at 33 µM in experiment [3] (setting [4]) is greater than 90%; in experiment [3] (setting [5]) it was less than 25%.
For the compound `CCS(=O)(=O)NCCOc1ccc2cc(O)c(N3CC(=O)NS3(=O)=O)c(F)c2c1` [Compound 311, N-(2-{[8-fluoro-6-hydroxy-7-(1,1,4-trioxo-1λ^6,2,5-thiadiazolidin-2-yl)naphthalen-2-yl]oxy}ethyl)ethanesulfonamide], the IC50 in experiment [1] (read-out: PTPN2 MSA IC50) was less than 1 nM. For the same compound, the inhibition at 33 µM in experiment [3] (setting [4]) is 60 to 90%; in experiment [3] (setting [5]), less than 25%.
The corresponding values for `CC(C)CCS(=O)(=O)N1CC=C(c2ccc3cc(O)c(N4CC(=O)NS4(=O)=O)c(F)c3c2)C1` [Compound 313, 5-{1-fluoro-3-hydroxy-7-[1-(3-methylbutane-1-sulfonyl)-2,5-dihydro-1H-pyrrol-3-yl]naphthalen-2-yl}-1λ^6,2,5-thiadiazolidine-1,1,3-trione] are less than 1 nM, 60 to 90% and less than 25%.
As for `COc1ccc2cc(O)c(N3CC(=O)NS3(=O)=O)cc2c1` [Compound X, reference compound], the IC50 was 10 to 100 nM in experiment [1] (Table 4, read-out: PTPN2 MSA IC50) and 69 nM in experiment [1] (read-out: PTPN2 IC50). Also, the inhibition at 33 µM in experiment [3] (33 μM, in the presence of IFNγ, read-out: growth inhibition in the presence of IFNγ compared to DMSO controls) is less than 25%; in experiment [3] (Table 4, +0.5 ng/mL IFNγ, 33 μM, read-out: % B16F10 growth inhibition (+0.5 ng/mL IFNγ) @ 33 μM), less than 25%; in experiment [3] (Table 4, no IFNγ, 33 μM, read-out: % B16F10 growth inhibition (no IFNγ) @ 33 μM), less than 25%.

The values above are taken from patent US20210009542A1 (Calico Life Sciences LLC, priority 2018, published 2021).
